Results on 14 compounds are retold here after US20060223875A1, “Methods and compositions for production, formulation and use of 1-aryl-3-azabicyclo[3.1.0]hexanes” (priority 2005, published 2006).

Where two headings read alike, the source gives them in different places.

Test [1] relates to reuptake of norepinephrine, serotonin, and dopamine. Particulars: cited from earlier work.
In test [2] the target is serotonin (5-HT) transporter (Rattus norvegicus, UniProt P31652). Nature of the test: Inhibition of [3H]5-HT uptake in rat whole brain synaptosomes. Format: biochemical. The procedure:
(§1) The effects of 1-aryl-3-azabicyclo[3.1.0]hexanes of the invention for inhibiting transport of norepinephrine (NE) and/or dopamine (DA) and/or serotonin (5-HT) were evaluated using preparations of synaptosomes from different regions of the rat brain according to previously-reported techniques (Perovic and Muller, 1995, Janowsky et al., 1986). The subject assay methods are art-accepted models for generally assessing and predicting activities of drugs that modulate biogenic amine transport in mammals.
(§2) Whole brains were obtained from normal rats, and synaptosomal preparations were made from either whole brain (5-HT), striatum (DA) or hypothalamus (NE) by gentle disruption in 10 volumes (w/v) of 0.32 M sucrose (0-4° C.) using a Teflon-glass homogenizer. The homogenate was then centrifuged at 1000×g for 10 min. The supernatant was retained and centrifuged at 23000 g for 20 min. The resulting pellet was gently resuspended in 200 volumes of 0.32 M sucrose (0-4° C.) using a teflon-glass homogenizer. Aliquots (250 μL) of this preparation were added to tubes, along with 0.2 μCi/mL of [^3H]5-HT, [^3H]DA, or [^3H]NE, 200 μL of selected 1-aryl-3-azabicyclo[3.1.0]hexane test compounds (to yield final concentrations of 100 nM, 300 nM, 1 μM, 3 μM, 10 μM, 30 μM or 100 μM) and 1 mL of Krebs-Ringer bicarbonate buffer (pH 7.4). The mixtures were incubated for either 15 (DA and 5-HT uptake) or 20 (NE uptake) minutes at 37° C. At the end of this period, the assay was terminated by rapid filtration over Whatman GF/C glass fiber filters. The filters were rinsed 3 times with 4 ml of Krebs-Ringer bicarbonate buffer (0-4° C.), and the radioactivity retained on the filters was measured by liquid scintillation spectrometry. The results of these assays are shown in Table 3, below, which indicates, for each of the exemplary, aza-substituted compounds, the structure of the substituent, and levels of observed uptake inhibition for each of the indicated neurotransmitters. Also provided in the table is a multi-target “inhibition profile”, expressing a ratio of observed inhibition for each of the aza-substituted bicifadine across a panel of the three indicated neurotransmitters.

The target of test [3] is dopamine (DA) transporter (Rattus norvegicus, UniProt P23977). As to the kind of experiment: Inhibition of [3H]DA uptake in rat striatum synaptosomes. Type of test: biochemical. As for the experimental part: as §1, §2
Chain of dopamine (DA) transporter (P23977 whole entry): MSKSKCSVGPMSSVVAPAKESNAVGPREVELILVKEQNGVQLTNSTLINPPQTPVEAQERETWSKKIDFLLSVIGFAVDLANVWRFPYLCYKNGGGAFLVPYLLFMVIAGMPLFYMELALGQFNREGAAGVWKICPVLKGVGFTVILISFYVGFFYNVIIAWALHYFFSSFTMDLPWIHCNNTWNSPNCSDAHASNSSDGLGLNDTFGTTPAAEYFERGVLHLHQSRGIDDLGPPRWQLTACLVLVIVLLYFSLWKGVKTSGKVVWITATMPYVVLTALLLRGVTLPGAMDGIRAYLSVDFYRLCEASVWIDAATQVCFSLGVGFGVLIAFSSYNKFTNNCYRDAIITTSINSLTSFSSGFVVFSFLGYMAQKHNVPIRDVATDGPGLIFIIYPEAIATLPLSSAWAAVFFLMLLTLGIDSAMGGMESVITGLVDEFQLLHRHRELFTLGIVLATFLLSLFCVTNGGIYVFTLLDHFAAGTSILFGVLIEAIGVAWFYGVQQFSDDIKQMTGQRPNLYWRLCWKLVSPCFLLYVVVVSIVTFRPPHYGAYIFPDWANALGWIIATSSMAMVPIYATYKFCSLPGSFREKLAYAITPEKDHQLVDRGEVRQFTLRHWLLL
The target of test [4] is norepinephrine (NE) transporter (Rattus norvegicus, UniProt Q9WTR4). Nature of the test: Inhibition of [3H]NE uptake in rat hypothalamus synaptosomes. Type of test: biochemical. The procedure: as §1, §2
Chain of norepinephrine (NE) transporter (Q9WTR4 1-597): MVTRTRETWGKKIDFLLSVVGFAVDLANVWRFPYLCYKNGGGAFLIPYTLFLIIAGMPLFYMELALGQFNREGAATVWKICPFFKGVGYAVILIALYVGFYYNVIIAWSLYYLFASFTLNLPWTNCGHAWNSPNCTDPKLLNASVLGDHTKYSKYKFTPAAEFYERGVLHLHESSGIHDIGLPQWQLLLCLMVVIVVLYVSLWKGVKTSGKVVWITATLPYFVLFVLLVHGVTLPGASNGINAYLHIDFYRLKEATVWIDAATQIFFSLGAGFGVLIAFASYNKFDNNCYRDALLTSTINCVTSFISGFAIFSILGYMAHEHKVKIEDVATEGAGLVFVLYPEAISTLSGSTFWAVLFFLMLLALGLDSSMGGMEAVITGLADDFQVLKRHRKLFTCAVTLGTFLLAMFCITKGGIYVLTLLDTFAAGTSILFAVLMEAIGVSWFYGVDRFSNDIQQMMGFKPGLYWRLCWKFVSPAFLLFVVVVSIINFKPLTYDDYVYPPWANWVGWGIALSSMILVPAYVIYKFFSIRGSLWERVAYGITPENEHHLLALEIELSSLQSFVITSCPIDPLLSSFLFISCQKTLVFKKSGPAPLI
The conditions of test [5]: orally administered single dose; 150 mg bicifadine, 650 mg aspirin; cited from earlier work.
The conditions of test [6]: dental surgery patients; cited from earlier work.
The mark [7] stands for this setting: rat whole brain synaptosomes, [3H]5-HT, 15 min, 37° C., read-out: Inhibition of 5-HT Uptake (IC50).
Where [8] appears, read: rat striatum synaptosomes, [3H]DA, 15 min, 37° C., read-out: Inhibition of DA Uptake (IC50).
The mark [9] stands for this setting: rat hypothalamus synaptosomes, [3H]NE, 20 min, 37° C., read-out: Inhibition of NE Uptake (IC50).

Chain of serotonin (5-HT) transporter (P31652 whole entry): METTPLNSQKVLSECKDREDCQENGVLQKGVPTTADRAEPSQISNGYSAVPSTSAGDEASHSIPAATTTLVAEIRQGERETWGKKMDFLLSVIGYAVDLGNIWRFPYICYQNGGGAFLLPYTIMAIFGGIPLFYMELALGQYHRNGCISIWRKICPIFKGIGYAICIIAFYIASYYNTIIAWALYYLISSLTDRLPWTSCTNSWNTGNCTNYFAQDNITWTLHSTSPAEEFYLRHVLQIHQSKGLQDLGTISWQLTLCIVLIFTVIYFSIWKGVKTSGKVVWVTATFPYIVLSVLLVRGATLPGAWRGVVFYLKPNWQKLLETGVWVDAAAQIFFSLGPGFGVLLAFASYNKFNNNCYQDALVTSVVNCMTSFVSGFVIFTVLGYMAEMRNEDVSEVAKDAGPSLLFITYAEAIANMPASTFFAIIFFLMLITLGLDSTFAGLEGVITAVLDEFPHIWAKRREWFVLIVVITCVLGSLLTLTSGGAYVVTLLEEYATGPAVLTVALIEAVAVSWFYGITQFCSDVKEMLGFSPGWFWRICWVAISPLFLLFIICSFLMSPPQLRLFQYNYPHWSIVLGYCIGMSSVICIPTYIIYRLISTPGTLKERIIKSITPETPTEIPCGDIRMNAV

Take `Cl.Clc1ccc(C23CNCC2C3)cc1Cl` (stereo not shown) [1-(3,4-dichlorophenyl)-3-azabicyclo[3.1.0]hexane hydrochloride]: the “inhibition of reuptake of norepinephrine, serotonin, and dopamine” value in test [1] is given as “inhibit reuptake of all three of these biogenic amines”.

On to `Cc1ccc(C23CC2CN(CC(F)(F)F)C3)cc1` (stereo not shown) [C2H2F3,4-CH3], for which the half-maximal inhibitory concentration (IC50) (commonly the concentration needed to halve the response being measured) in test [2] (setting [7]) stood at 25000 nM; in test [3] (setting [8]), 48000 nM.

`CCN1CC2CC2(c2ccc(C)cc2)C1` (stereo not shown) [C2H5,4-CH3, 3-Ethyl-1-p-tolyl-3-aza-bicyclo[3.1.0]hexane]: the figures for the IC50 in test [4], in test [2] and in test [3] were under 100 nM, 240 nM and under 100 nM, respectively.

Consider `COCCN1CC2CC2(c2ccc(C)cc2)C1` (stereo not shown) [C3H7O, 4-CH3, 3-(2-Methoxyethyl)-1-p-tolyl-3-aza-bicyclo[3.1.0]hexane], for which the half-maximal inhibitory concentration (IC50) in test [4] (setting [9]) amounted to 6500 nM; in test [2] (setting [7]), 8000 nM; in test [3] (setting [8]), 10000 nM.

In the case of `CN1CC2CC2(c2cccc(Cl)c2)C1` (stereo not shown) [CH3,3-Cl, 1-(3-Chlorophenyl)-3-methyl-3-aza-bicyclo[3.1.0]hexane], the IC50 in test [4] worked out at 83 nM; in test [2], 270 nM; in test [3] it was 1300 nM.

For `CN1CC2CC2(c2ccc(C(F)(F)F)cc2)C1` (stereo not shown) [CH3,4-CF3, 3-Methyl-1-(4-trifluoromethylphenyl)-3-aza-bicyclo[3.1.0]hexane], the IC50 was determined as 2600 nM in test [4] (setting [9]) and 130 nM in test [2] (setting [7]).

Consider `CN1CC2CC2(c2ccc(CN)cc2)C1` (stereo not shown) [CH3,4-CH2NH2, (4-(3-Methyl-3-aza-bicyclo[3.1.0]hexan-1-yl)phenyl)methanamine], for which the half-inhibitory concentration (IC50) was found to be 7400 nM in test [2] (setting [7]) and 8500 nM in test [3] (setting [8]).

On to `Cc1ccc(C23CC2CN(C)C3)cc1` (stereo not shown) [CH3,4-CH3, 3-Methyl-1-p-tolyl-3-aza-bicyclo[3.1.0]hexane], for which the values for the IC50 in test [4], in test [2] and in test [3] were 150 nM, 190 nM and 960 nM, respectively.

`CN1CC2CC2(c2ccc(F)cc2)C1` (stereo not shown) [CH3,4-F, 1-(4-Fluorophenyl)-3-methyl-3-aza-bicyclo[3.1.0]hexane]: the IC50 in test [4] was determined as 170 nM; in test [2], 3400 nM; in test [3], 3800 nM.

Turning to `CC(=O)Oc1ccccc1C(=O)O` [aspirin], the “analgesic activity compared to placebo” value in test [5] is listed as “Significant analgesic activity”.

Consider `Cc1ccc(C23CNCC2C3)cc1.Cl` (stereo not shown) [bicifadine, 1-p-Tolyl-3-aza-bicyclo[3.1.0]hexane hydrochloride, reference compound], for which the figures for the IC50 in test [4] (setting [9]), in test [2] (setting [7]) and in test [3] (setting [8]) were 130 nM, 130 nM and 1300 nM, respectively. Besides, the “analgesia relative to codeine and tramadol” value in test [6] is “analgesia comparable to the narcotic, codeine and the narcotic-like agent tramadol”. Also, in test [5], the “analgesic activity compared to placebo” value is listed as “Significant analgesic activity”.

`Cc1ccc(C23CC2CN(C(C)C)C3)cc1` (stereo not shown) [i-C3H7,4-CH3, 3-Isopropyl-1-p-tolyl-3-aza-bicyclo[3.1.0]hexane]: the values for the IC50 in test [4] (setting [9]), in test [2] (setting [7]) and in test [3] (setting [8]) were 230 nM, 170 nM and 610 nM, respectively.

Regarding `CCCN1CC2CC2(c2ccc(C)cc2)C1` (stereo not shown) [n-C3H7,4-CH3, 3-Propyl-1-p-tolyl-3-aza-bicyclo[3.1.0]hexane], the IC50 in test [4] (setting [9]) amounted to 1400 nM; in test [2] (setting [7]) it was 760 nM; in test [3] (setting [8]), 2700 nM.

With `Cc1ccc(C23CC2CN(C(C)(C)C)C3)cc1` (stereo not shown) [t-C4H9,4-CH3], the IC50 worked out at 2700 nM in test [4] (setting [9]), 7600 nM in test [2] (setting [7]) and 7300 nM in test [3] (setting [8]).
